Measured values from patent US10633353B2, “Polymerizable compound, composition, polymer, optically anisotropic body, liquid crystal display element, and organic EL display” (DIC Corporation, priority 2014, dated 2020).

Experiment: Preservation stability of the coating liquid
Type: physicochemical
Details: coating liquid stored for 2 months shielded from light at 0° C.; appearance and GPC
Method: The preservation stability of the coating liquid was evaluated on a scale of A to E on the basis of the state of the coating liquid that was stored for 2 months under a condition where the coating liquid was shielded from light at 0° C.
A: No visual change in the appearance of the coating liquid was confirmed. A GPC analysis of the coating liquid confirmed that the change in the composition of the coating liquid was 1% or less.
B: No visual change in the appearance of the coating liquid was confirmed. A GPC analysis of the coating liquid confirmed that the change in the composition of the coating liquid was 2% or less.
C: A visual change in the appearance of the coating liquid was confirmed; a trace amount of insoluble components were confirmed, or a GPC analysis of the coating liquid confirmed that the change in the composition of the coating liquid was 3% or less.
D: A visual change in the appearance of the coating liquid was confirmed; insoluble components were confirmed. The ratio of the weight of the insoluble components to the total solid content was 5% or less.
E: A large amount of insoluble components were visually confirmed. The ratio of the weight of the insoluble components to the total solid content was 5% or more.
For `C=CC(=O)OCCCOc1ccc(C(=O)OCCc2ccc(OC(=O)c3ccc(OCCCOC(=O)C=C)cc3)c(/C=N/Nc3nc4cc(C#N)ccc4s3)c2)cc1` [1-c-25], the Preservation stability was “B (No visual change in the appearance of the coating liquid was confirmed. A GPC analysis of the coating liquid confirmed that the change in the composition of the coating liquid was 2% or less.)”. In the case of `C=CC(=O)OCCCCOC(=O)C1CCC(C(=O)OC2CCC(C(=O)Oc3ccc(OC(=O)C4CCC(OC(=O)C5CCC(C(=O)OCCCCOC(=O)C=C)CC5)CC4)c(/C=N/N(CCCCC)c4nc5ccccc5s4)c3)CC2)CC1` (centres unmarked) [1-f-98], the Preservation stability is reported as “A (No visual change in the appearance of the coating liquid was confirmed. A GPC analysis of the coating liquid confirmed that the change in the composition of the coating liquid was 1% or less.)”. With `C=CC(=O)OCCCOc1ccc(C(=O)OCCc2ccc(OC(=O)c3ccc(OCCCOC(=O)C=C)cc3)c(/C=N/Nc3nc4cc([N+](=O)[O-])ccc4s3)c2)cc1` [1-c-23] the Preservation stability was “B (No visual change in the appearance of the coating liquid was confirmed. A GPC analysis of the coating liquid confirmed that the change in the composition of the coating liquid was 2% or less.)”. In the case of `C=CC(=O)OCCCCOC(=O)C1CCC(C(=O)OC2CCC(C(=O)Oc3ccc(OC(=O)C4CCC(OC(=O)C5CCC(C(=O)OCCCCOC(=O)C=C)CC5)CC4)c(/C=N/N(CC)c4nc5ccccc5s4)c3)CC2)CC1` (centres unmarked) [1-f-102], the Preservation stability is reported as “A (No visual change in the appearance of the coating liquid was confirmed. A GPC analysis of the coating liquid confirmed that the change in the composition of the coating liquid was 1% or less.)”. For `C=CC(=O)OCCCCCCOc1ccc(C(=O)OCCc2ccc(OC(=O)c3ccc(OCCCCCCOC(=O)C=C)cc3)c(/C=N/Nc3ccc4ccccc4c3)c2)cc1` [1-c-32], the Preservation stability was “B (No visual change in the appearance of the coating liquid was confirmed. A GPC analysis of the coating liquid confirmed that the change in the composition of the coating liquid was 2% or less.)”. For `C=CC(=O)OCCCCCCOc1ccc(C(=O)Oc2ccc(-c3ccc(OC(=O)c4ccc(OCCCCCCOC(=O)C=C)cc4)cc3/C=N/Nc3nc4ccccc4s3)cc2)cc1` [1-hk-85], the Preservation stability was “A (No visual change in the appearance of the coating liquid was confirmed. A GPC analysis of the coating liquid confirmed that the change in the composition of the coating liquid was 1% or less.)”. With `C=CC(=O)OCCCCCCOC(=O)/C=C/c1ccc(CCC(=O)Oc2ccc(OC(=O)CCc3ccc(/C=C/C(=O)OCCCCCCOC(=O)C=C)cc3)c(/C=N/Nc3nc4ccccc4s3)c2)cc1` [1-cj-60] the Preservation stability was “A (No visual change in the appearance of the coating liquid was confirmed. A GPC analysis of the coating liquid confirmed that the change in the composition of the coating liquid was 1% or less.)”. In the case of `C=C(C)C(=O)OCCCCCOc1ccc(C(=O)OCCc2ccc(OC(=O)c3ccc(OCCCCCOC(=O)C(=C)C)cc3)c(/C=N/Nc3nc4ccccc4s3)c2)cc1` [1-c-7], the Preservation stability is reported as “A (No visual change in the appearance of the coating liquid was confirmed. A GPC analysis of the coating liquid confirmed that the change in the composition of the coating liquid was 1% or less.)”. For `C=CC(=O)OCCCCOc1ccc(C(=O)OCCc2ccc(OC(=O)c3ccc(OCCCCOC(=O)C=C)cc3)c(/C=N/N(CCCCCC)c3nc4ccc5ccccc5c4s3)c2)cc1` [1-c-40], the Preservation stability was “A (No visual change in the appearance of the coating liquid was confirmed. A GPC analysis of the coating liquid confirmed that the change in the composition of the coating liquid was 1% or less.)”. With `C=CC(=O)OCCOCCOCCOc1ccc(OC(=O)C2CCC(COc3ccc(OCC4CCC(C(=O)Oc5ccc(OCCOCCOCCOC(=O)C=C)cc5)CC4)c(/C=N/Nc4nc5ccccc5s4)c3)CC2)cc1` (centres unmarked) [1-cm-105] the Preservation stability was “A (No visual change in the appearance of the coating liquid was confirmed. A GPC analysis of the coating liquid confirmed that the change in the composition of the coating liquid was 1% or less.)”. For `C=C(C)C(=O)OCCCOc1ccc(C(=O)OCCc2ccc(OC(=O)c3ccc(OCCCOC(=O)C(=C)C)cc3)c(/C=N/Nc3nc4ccccc4s3)c2)cc1` [1-c-5], the Preservation stability was “A (No visual change in the appearance of the coating liquid was confirmed. A GPC analysis of the coating liquid confirmed that the change in the composition of the coating liquid was 1% or less.)”. For `C=CC(=O)OCCCOc1ccc(CCC(=O)Oc2ccc(OC(=O)CCc3ccc(OCCCOC(=O)C=C)c(OC)c3)c(/C=N/Nc3nc4ccccc4s3)c2)cc1OC` [1-c-52], the Preservation stability was “A (No visual change in the appearance of the coating liquid was confirmed. A GPC analysis of the coating liquid confirmed that the change in the composition of the coating liquid was 1% or less.)”. With `C=CC(=O)OCCCCOc1ccc(OC(=O)C2CCC(C(=O)OCCc3ccc(OC(=O)C4CCC(C(=O)Oc5ccc(OCCCCOC(=O)C=C)cc5)CC4)c(C=NNc4nc5ccccc5s4)c3)CC2)cc1` (centres unmarked) [1-c-14] the Preservation stability was “A (No visual change in the appearance of the coating liquid was confirmed. A GPC analysis of the coating liquid confirmed that the change in the composition of the coating liquid was 1% or less.)”. For `C=CC(=O)OCCCCOC(=O)C1CCC(C(=O)OC2CCC(C(=O)Oc3ccc(OC(=O)C4CCC(OC(=O)C5CCC(C(=O)OCCCCOC(=O)C=C)CC5)CC4)c(/C=N/N(CCC)c4nc5ccccc5s4)c3)CC2)CC1` (centres unmarked) [1-f-100], the Preservation stability was “A (No visual change in the appearance of the coating liquid was confirmed. A GPC analysis of the coating liquid confirmed that the change in the composition of the coating liquid was 1% or less.)”. In the case of `C=CC(=O)OCCCCCCOc1ccc(C(=O)Oc2ccc3cc(OCCCCCCOC(=O)C=C)ccc3c2/C=N/Nc2nc3ccccc3s2)cc1` [1-e-73], the Preservation stability is reported as “A (No visual change in the appearance of the coating liquid was confirmed. A GPC analysis of the coating liquid confirmed that the change in the composition of the coating liquid was 1% or less.)”. In the case of `C=CC(=O)OCCCCCCOC1CCC(OC(=O)C2CCC(C(=O)Oc3ccc(OC(=O)C4CCC(C(=O)OC5CCC(OCCCCCCOC(=O)C=C)CC5)CC4)c4c3SC(=C(C#N)C(=O)OCC)S4)CC2)CC1` (centres unmarked) [r-3, reference compound], the Preservation stability is reported as “C (A visual change in the appearance of the coating liquid was confirmed; a trace amount of insoluble components were confirmed, or a GPC analysis of the coating liquid confirmed that the change in the composition of the coating liquid was 3% or less.)”. With `C=CC(=O)OCCCCCCOc1ccc(OC(=O)C2CCC(COc3ccc(OCC4CCC(C(=O)Oc5ccc(OCCCCCCOC(=O)C=C)cc5)CC4)c(/C=N/N(CCOCCOCCOC(=O)C=C)c4nc5ccccc5s4)c3)CC2)cc1` (centres unmarked) [1-cmn-94] the Preservation stability was “A (No visual change in the appearance of the coating liquid was confirmed. A GPC analysis of the coating liquid confirmed that the change in the composition of the coating liquid was 1% or less.)”. With `C=CC(=O)OCCCCCCOc1ccc(C(=O)Oc2ccc(C(=O)Oc3ccc(OCCCCCCOC(=O)C=C)cc3/C=N/Nc3nc4ccccc4s3)cc2)cc1` [1-eh-72] the Preservation stability was “A (No visual change in the appearance of the coating liquid was confirmed. A GPC analysis of the coating liquid confirmed that the change in the composition of the coating liquid was 1% or less.)”. For `C=CC(=O)OCCCCOC(=O)/C=C/c1ccc(CCC(=O)Oc2ccc(OC(=O)CCc3ccc(/C=C/C(=O)OCCCCOC(=O)C=C)cc3)c(/C=N/Nc3nc4ccccc4s3)c2)cc1` [1-cj-59], the Preservation stability was “A (No visual change in the appearance of the coating liquid was confirmed. A GPC analysis of the coating liquid confirmed that the change in the composition of the coating liquid was 1% or less.)”.

Same assay, conditions: summary in words
In the case of `C=CC(=O)OCCCCCCOc1ccc(C(=O)Oc2ccc(-c3ccc(OC(=O)c4ccc(OCCCCCCOC(=O)C=C)cc4)cc3/C=N/Nc3nc4ccccc4s3)cc2)cc1` [1-hk-85], the Preservation stability is reported as “high”.
